From patent US6107310A, “Heteroarylcarboxamide derivatives for treating CNS disorders” (Knoll Aktiengesellschaft, priority 1995, dated 2000)
pKi: −log10 of the molar value. Counter-ions that a name gives are not always drawn.

Legend:
Parameters in all cases: species or system rat (male Charles River CD)
[1] = target: T1, D2-like dopamine receptors (Rattus norvegicus, UniProt P61169); experiment: inhibition of tritiated (S)-sulpiride binding to D2-like dopamine receptors in rat striatal tissue; conditions: rat striatum
T1 construct: Striatal tissue from the brains of male Charles River CD rats; from tissue; host or cells: rat striatum (male Charles River CD rats), membrane preparation
T1 sequence (P61169 whole entry): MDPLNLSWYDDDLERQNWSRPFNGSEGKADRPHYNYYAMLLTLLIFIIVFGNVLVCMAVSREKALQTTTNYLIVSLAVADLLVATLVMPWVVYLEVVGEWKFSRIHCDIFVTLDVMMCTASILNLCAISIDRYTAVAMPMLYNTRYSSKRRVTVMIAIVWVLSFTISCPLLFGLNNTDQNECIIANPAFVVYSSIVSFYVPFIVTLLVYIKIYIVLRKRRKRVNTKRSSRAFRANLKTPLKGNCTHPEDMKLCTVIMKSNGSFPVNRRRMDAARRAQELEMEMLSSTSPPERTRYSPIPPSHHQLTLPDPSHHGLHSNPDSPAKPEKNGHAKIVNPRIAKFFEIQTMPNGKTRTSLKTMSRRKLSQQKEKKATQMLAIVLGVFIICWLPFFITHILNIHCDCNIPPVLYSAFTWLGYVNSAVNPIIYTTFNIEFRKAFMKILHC
Method: Striatal tissue from the brains of male Charles River CD rats weighing between 140-250 g were homogenised in ice-cold 50 mM Tris-HCl buffer (pH 7.7 when measured at 25° C.) and centrifuged at 40,000 g for 10 minutes. The pellet was resuspended in Tris salts buffer (50 mM Tris-HCl buffer containing 120 mM NaCl, 5 mM KCl, 2 mM CaCl2 and 1 mM MgCl2 with the addition of 6 mM ascorbic acid; pH 7.7 when measured at 25° C.), and again centrifuged at 40,000 g for 10 minutes. The final pellet was stored at -80° C. Before each test the pellet was resuspended in Tris salts buffer (equivalent to 2 mg wet weight of tissue/ml). […]
(§1) The filters were washed with ice-cold Tris-HCl buffer and dried. The filters were punched out in to vials, scintillation fluid added and were left for about 20 hours before being counted by scintillation spectrophotometry. The percentage displacement of specific binding of the tritiated ligand was calculated for the single concentration (10^-6 M) of test compound. […] The inhibition coefficient Ki was then calculated using the formula [formula] in which [ligand] is the concentration of the tritiated ligand used and KD is the equilibrium dissociation constant for the ligand.

5-HT1A receptors = target: T2, 5-HT1A receptors (Rattus norvegicus, UniProt P19327); experiment: inhibition of [3H]8-OH-DPAT binding to 5-HT1A receptors in rat hippocampal tissue; conditions: rat hippocampus
T2 construct: Hippocampal tissue from the brains of male Charles River CD rats; from tissue; host or cells: rat hippocampus (male Charles River CD rats), membrane preparation
T2 sequence (P19327 1-422): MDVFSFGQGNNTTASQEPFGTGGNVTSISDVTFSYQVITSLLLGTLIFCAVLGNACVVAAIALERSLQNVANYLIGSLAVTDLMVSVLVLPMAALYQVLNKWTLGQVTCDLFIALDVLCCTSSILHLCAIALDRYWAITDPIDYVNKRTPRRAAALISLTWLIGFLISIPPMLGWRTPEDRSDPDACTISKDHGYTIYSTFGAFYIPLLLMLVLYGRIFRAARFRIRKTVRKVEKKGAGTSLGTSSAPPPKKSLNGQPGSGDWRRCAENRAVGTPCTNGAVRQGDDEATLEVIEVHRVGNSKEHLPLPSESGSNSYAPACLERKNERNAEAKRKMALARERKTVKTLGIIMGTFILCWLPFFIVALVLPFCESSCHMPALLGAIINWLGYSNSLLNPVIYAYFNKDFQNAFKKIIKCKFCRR
Method: Hippocampal tissue from the brains of male Charles River CD rats weighing between 150-250 g were homogenised in ice-cold 50 mM Tris-HCI buffer (pH 7.7) when measured at 25° C., 1:40 w/v) and centrifuged at 30,000 g at 4° C. for 10 minutes. The pellet was rehomogenised in the same buffer, incubated at 37° C. for 10 minutes and centrifuged at 30,000 g at 4° C. for 10 minutes. The final pellet was resuspended in 50 mM Tris-HCl buffer (pH 7.7) containing 4 mM CaCl2, 0.1% L-ascorbic acid and 10 μM pargyline hydrochloride (equivalent to 6.25 mg wet weight of tissue/ml) and used immediately in the binding assay. […]
as §1, with “into” for “in to”, “radioactivity determined” for “were left for about 20 hours before being counted”, “by liquid” for “by”, “counting.” for “spectrophotometry.”

α1-adrenoceptors = experiment: inhibition of [7-methoxy-3H]prazosin binding to α1-adrenoceptors in rat whole cortical tissue; conditions: rat cortex
Method: Whole cortical tissue from the brains of male Charles River CD rats weighing between 150-250 g were homogenised in ice-cold 50 mM Tris-HCl, pH 7.6 (at 25° C.; 1:40 w/v) and centrifuged at 1000 g at 4° C. for 10 minutes. The supernatant was centrifuged at 30,000 g at 4° C. for 10 minutes. The pellet was rehomogenised in 50 mM Tris-HCl, pH 7.6 (1:40 w/v) and centrifuged at 30,000 g at 4° C. for 10 minutes. The final pellet was resuspended in 50 mM Tris-HCl, pH 7.6 (equivalent to 12.5 mg wet weight of tissue/ml) and used immediately in the binding assay. […]
as §1, with “into” for “in to”, “radioactivity determined” for “were left for about 20 hours before being counted”, “by liquid” for “by”, “counting.” for “spectrophotometry.”

Nc1ncccc1C(=O)NCC1CCN(C[C@H]2COc3ccc4[nH]ccc4c3O2)CC1 [Example 1, (S)-2-amino-N-{[1-(2,3-dihydro-7H-1,4-dioxino[2,3-e]indol-2-ylmethyl)-4-piperidyl]methyl}pyridine-3-carboxamide]
pKi ([1]; tritiated (S)-sulpiride 1 nM, 4° C., 40 minutes): 8.12 | pKi (5-HT1A receptors; [3H]8-OH-DPAT 2 nM, 25° C., 30 minutes): 8.51 | pKi (α1-adrenoceptors; [7-methoxy-3H]prazosin 0.1 nM, 30° C., 30 minutes): 7.91

O=C(NCC1CCN(C[C@H]2COc3ccc4[nH]ccc4c3O2)CC1)c1ccccn1 [Example 2, (S)-N-{[1-(2,3-dihydro-7H-1,4-dioxino[2,3-e]indol-2-ylmethyl)-4-piperidyl]methyl}pyridine-2-carboxamide 1.3 fumarate, 0.25 diethyl ether, 1.0 hydrate]
inhibition at 1 µM ([1]; 10^-6 M, tritiated (S)-sulpiride, read-out: % displacement at 10^-6 M (D2-like)): 122% | inhibition at 1 µM (5-HT1A receptors; 10^-6 M, [3H]8-OH-DPAT, read-out: % displacement at 10^-6 M (5-HT1A)): 99% | % displacement at 10^-6 M (α1) (α1-adrenoceptors; 10^-6 M, [7-methoxy-3H]prazosin, 30 min, 1 µM): 93%
